Laboratory results taken from US20060206946A1, “Method of disrupting heme transport in nematodes and of modelling and evaluating eukaryotic heme transport” (priority 2005, published 2006).

What was measured:
[1] = system: C. elegans; test: Metabolic labeling with 59Fe or 59Fe-heme, heme isolation and TLC; type: in vivo, Caenorhabditis elegans; conditions: for radiolabel signal in heme extracted from labeled worms: 9.4×10^6 DPM, mCeHR
Protocol: (E) Metabolic labeling in C. elegans cultured in the presence of heme. Synchronized L1 larvae were grown in mCeHR medium containing either ^59Fe or ^59Fe-heme (9.4×10^6 DPM) and the worms harvested as gravid adults. Heme was extracted and concentrated, and then resolved by TLC followed by detection with a PhosphorImager (top panel). Lane 5, ^59Fe-heme control. Radiolabeled bands were quantified in a gamma counter and CPM normalized to total protein (bottom panel). To correct for non-specific binding of the radiolabeled Fe and heme, parallel experiments were conducted in the presence of 1 mM sodium azide (samples 1 and 3).
Preparation of hemin, hemin analogs and [^59Fe]Heme. Fresh stock solutions of hemin or hemin analogs (Frontier Sciences, Logan, Utah) were prepared immediately prior to use by dissolving required amounts in 0.3 M ammonium hydroxide. The pH of the stock solution was adjusted to pH 8.0 with 6 N HCl, and filter sterilized ([…]). The upper limit of free iron was estimated to be 3.8 nM/1 μM of hemin chloride by inductively coupled plasma-mass spectrometry (ICP-MS) analysis. For synthesis of ^59Fe-heme, 50 ml of glacial acetic acid was stirred under a constant flow of N2 at 60° C. followed by addition of 12 mg of protoporphyrin IX in pyridine for 30 min. To this mixture, 0.85 μCi of FeCl3 (specific activity 35.77 mCi/mg, Perkin Elmer, Boston, Mass.) was stirred in for an additional 3 h. Heme was extracted from this mixture with ethyl acetate followed by extensive washes with 4 N HCl and distilled water to remove unincorporated protoporphyrin IX and iron. The heme thus obtained was concentrated by evaporation of the ethyl acetate using a RotaVapor and frozen at −20° C. until further use. Total amount of ^59Fe-heme synthesized by this method was measured using a Packard Gamma Counter (˜21% efficiency). The purity of heme was determined by thin layer chromatography using silica gel 60 matrix in an NH4OH-saturated chamber with 2,6-lutidine/water solvent. We estimated the specific activity of ^59Fe-heme synthesized to be ˜2.8×10^6 DPM/nmol.
Metabolic Labeling, Heme Isolation and Thin Layer Chromatography. Equal numbers of L1 worms were grown at 20° C. in mCeHR medium with 20 μM hemin and supplemented with 9.4×10^6 DPM of either ^59Fe-heme or ^59FeCl3. Radiolabeled adult worms were harvested by first incubating them in M9 buffer for 30 min to empty the gut contents. […] It was experimentally determined that this concentration of NaN3 was not lethal to worms. […] Plates were exposed to a PhosphorImager and the radiolabel signal corresponding to heme was excised and analyzed using a gamma counter. Counts (DPM) obtained were normalized for protein as determined by the bicinchoninic acid method (Sigma) performed on pre-aliquoted samples of intact worms. […]

[2] = system: C. elegans wild-type N2 strain; test: Worm culture and growth assay in axenic CeHR/mCeHR liquid medium; type: in vivo; conditions: for support of worm growth as heme source: in vivo
Protocol: (D) Biphasic response of C. elegans cultured in the presence of increasing amounts of hemin chloride (μM). Equal numbers of synchronized L1 larvae were grown in 24-well plates in mCeHR medium for 9 days and quantified (worms/μl) by microscopy. Each data point represents the mean±SD from three separate experiments performed in triplicate.
(A) Aerobic growth of C. elegans in mCeFIR medium with 20 μM hemin supplemented with either gallium protoporphyrin IX (GaPP) or gallium salts. Synchronized L1 larvae were grown for 9 days in 24-well plates and quantified (worms/μl) by microscopy. Each data point represents the mean from a single experiment, and each experiment was performed in triplicate. Inset depicts the GaPP analysis at lower concentrations for clarity.
(B) Effect of heme on the cytotoxicity of GaPP. Synchronized L1 larvae were inoculated in 24-well plates containing mCeHR medium with either 0, 2, 4, or 6 μM GaPP and increasing hemin (μM). The number of worms per μl was measured on day 9 and the data are presented as mean±SD.
FIG. 9 depicts worm utilization of heme-iron under iron deprivation. Equal numbers of synchronized L1 larvae were grown in the presence of 4, 20, and 100 μM hemin, either in basal mCeHR medium (set 1), or basal medium lacking exogenous iron (set 2), or as set 2 with 1 μM of the iron chelator ferrozine (set 3), or as set 3 with 486 μM ferrous ammonium sulfate (set 4). These values of ferrozine and iron were empirically determined by performing dose-response experiments and analyzing worm growth. The number of worms per μl was measured on day 9 and the data presented as mean±SD performed in triplicate. P<0.001 between sets 1 and 3.
To qualitatively and quantitatively determine the heme requirement of C. elegans, we assessed growth at various heme concentrations. Equal numbers of L1 larvae were inoculated in CeHR medium with either no cytochrome c and hemin, or with cytochrome c and increasing amounts of hemin (FIG. 4A). The effect of hemin became apparent within 48 hours and by 9 days, the heme-deplete worms were severely growth retarded at the L1/L2 stages. […] However, this stimulatory effect of heme was toxic to worms grown at heme concentrations >750 μM. To quantitatively assess the effect of heme on worms, we counted the number of live worms grown under different concentration of heme using DIC microscopy. […] On the basis of this association between heme and the growth and reproduction of C. elegans, we conclude that the biphasic nature of heme is likely due to the need for heme under heme-deprived conditions to perform essential metabolic functions, and the lethality of heme at high concentrations can be attributed to its cytotoxic activity.
Worm Culture and Growth Assays. Free-living worms were cultured in CeHR axenic liquid medium (Dr. Eric Clegg, Personal Communication). […] CeHR medium was modified (henceforth called mCeHR) to eliminate all sources of exogenously added heme; basal growth medium comprised 20 μM hemin chloride (Frontier Scientific, Logan, Utah) and 150 μM of ferrous ammonium sulfate (Sigma Chemicals). Worm strains were grown in mCeHR medium under aerobic conditions in tissue culture flasks at 20° C. ˜3.7×10^6 worms were routinely obtained after 3.5 to 4 days in a T75 flask with 30 ml basal medium from an initial inoculum of −1.5×10^5 worms. For initial culturing of worms in axenic media, three generations of worms were sequentially bleached (1.1% bleach/0.55 M NaOH) to eliminate any contaminating bacterial carryover from agar plates. In all dose-response experiments, worms were growth synchronized by treating the gravid hermaphrodite worms with bleach to dissolve adult worms. The eggs, resistant to bleach, were liberated from the carcasses and extensively washed with M9 buffer followed by overnight hatching in M9 buffer to synchronize growth. By harvesting at appropriate time intervals, synchronous larval stages and adult staged worms were collected for experimental manipulations. […]

[3] = system: C. elegans; type: in vivo, Caenorhabditis elegans; conditions: in vivo
Protocol: (C) Fluorescent metabolic labeling of worms with either 40 μM hemin (images 1, 4) or 40 μM ZnMP/4 μM hemin (images 2, 3, 5, 6) for 3 h followed by confocal microscopy with a 546 laser (images 1-3) and DIC optics (images 4-6). Arrowheads indicate ZnMP fluorescence accumulation within intestinal cells and developing embryos. For clarity, the boxed image in 2 is magnified in images 3 and 6. (Bar=100 μm).
(D) Worms were incubated with 40 μM ZnMP/4 μM hemin for 16 h followed by a chase with 40 μM hemin. Worms were analyzed by epifluorescence microscopy (TRITC channel) and DIC optics. Experiments were performed either in the absence (images 1-4) or presence (images 5-8) of NaN3 during the chase periods to test for the non-specific loss of ZnMP fluorescence. Photomicrograph 4 is shown at a lower power to depict the complete loss of ZnMP fluorescence. (Bar=100 μm). For (C) and (D), four separate experiments were performed with a minimum of 50 worms per data point per experiment. The data are representative for >90% of worms analyzed.
Because of the nature of the growth curve, we reasoned that heme homeostatis in C. elegans may be regulated in accordance with organismic needs and metabolic demands. […]
Pulse-Chase Analysis. […] At timed intervals, aliquots of worms were removed into the appropriate medium containing 10 mM NaN3 mounted on a slide and immediately analyzed with a 543 He/Ne laser on a Zeiss 410 confocal microscope, or with a Peltier-cooled Retiga 1300 12-bit CCD camera fitted on to a Leica DMIRE2 autofluorescence/DIC microscope. Images were further analyzed with SIMPLEPCI v5.2 Software (Compix, Inc.). […] No loss of fluorescence was observed when labeling experiments were performed in parallel in the presence of 1 mM NaN3 during the chase period and when worms were incubated in medium without hemin. To account for background autouluorescence in C. elegans, the sensor gain of the CCD camera or the laser was set to subtract any fluorescence obtained from control worms incubated in the presence of 40 μM hemin.

## [Cl][59Fe]([Cl])[Cl] [^59Fe]
[1]
  radiolabel signal in heme extracted from labeled worms: no radiolabeled signal

## [N-]=[N+]=[N-] [NaN3, sodium azide]
[1]; 1 mM NaN3
  lethality to worms: not lethal

## C=CC1=C(C)c2cc3[n-]c(cc4nc(cc5[n-]c(cc1n2)c(C)c5C=C)C(C)=C4CCC(=O)O)c(CCC(=O)O)c3C.[59Fe+2] [^59Fe-heme]
[1]
  radiolabel signal in heme extracted from labeled worms: specific signal
[1]; in the presence of NaN3
  59Fe-heme uptake in metabolically inhibited worms: negligible

## O=S(=O)([O-])c1ccc(-c2nnc(-c3ccccn3)nc2-c2ccc(S(=O)(=O)[O-])cc2)cc1.[Na+].[Na+] [ferrozine]
[2]; 1 μM ferrozine, medium lacking exogenous iron
  effect on diminution in worm growth under iron deprivation: further accentuated

## CCC1=C(C)c2cc3[n-]c(cc4[n-]c(cc5nc(cc1n2)C(C)=C5CC)c(C)c4CCC(=O)O)c(CCC(=O)O)c3C.[Zn+2] [ZnMP, zinc mesoporphyrin IX]
[3]
  time to discernable fluorescence signal in embryos: ≤ 130 min

## hemoglobin: hemoprotein used as heme source for worm growth
[2]
  support of worm growth as heme source: sustained worm growth

## Cytochrome c: hemoprotein used as heme source for worm growth
[2]
  support of worm growth as heme source: sustained worm growth
